Results reported in patent US11591359B2, “Enzyme-specific intracellularly-retained red fluorescent probe” (priority 2016, dated 2023).
“Also recorded” adds a separate entry of the source.

Legend:
[1] = biological target: T1, β-galactosidase (Escherichia coli, UniProt P00722); assay: Changes in absorption and fluorescence spectra by enzyme reaction; type: biochemical; details: 1 μM probe in PBS buffer, 5U β-galactosidase; for fluorescence emission in response to enzyme activity of β-galactosidase: excitation 610 nm, fluorescence 638 nm, 3600 seconds
Method: For the probe compounds of the present invention obtained in Example 1 (4-CH2F-SPiDER-RED-βGal and 2-CH2F-SPiDER-RED-βGal), changes in absorption and fluorescence spectra according to the addition of β-galactosidase were measured. The measurement results of 4-CH2F-SPiDER-RED-βGal are shown in FIG. 1, and the measurement results of 2-CH2F-SPiDER-RED-βGal are shown in FIG. 2.
The measurement conditions are as follows: an excitation wavelength of 610 nm, a slit (excitation/fluorescence) of 2.5 nm/2.5 nm, and a photomultiplier voltage of 700 V.
Measurements were carried out by adding 5U β-galactosidase to 2-CH2F-SPiDER-RED-βGal prepared at 1 μM in a PBS buffer solution. […] The measurement conditions are as follows: an excitation wavelength of 610 nm, a slit (excitation/fluorescence) of 2.5 nm/2.5 nm, and a photomultiplier voltage of […].

[2] = biological target: T1, β-galactosidase; assay: Labeling of fluorescent dye to BSA protein by β-galactosidase enzyme reaction in presence of BSA (SDS-PAGE fluorescence); type: biochemical; details: 1 mg/mL BSA, 5U β-galactosidase in PBS; for fluorescent labeling of BSA (fluorescence at the position of BSA after SDS electrophoresis): 10 μM compound, excitation 488 nm, fluorescence 540 to 600 nm
Method: The measurement results of 4-CH2F-SPiDER-RED-βGal are shown in FIG. 3, and the measurement results of 2-CH2F-SPiDER-RED-βGal are shown in FIG. 4.
Using 1) 10 μL of a PBS buffer solution containing 10 μM […], 1 mg/mL BSA, and 5U β-galactosidase, 2) 10 μL of a PBS buffer solution containing 10 μM 4-CH2F-SPiDER-RED-βGal and 1 mg/mL BSA, 3) 10 μL of a PBS buffer solution containing 10 μM 4-CH2F-SPiDER-RED-βGal and 5U β-galactosidase, 4) 10 μL of a PBS buffer solution containing only 10 μM 4-CH2F-SPiDER-RED-βGal, and 5) 10 μL of a PBS buffer solution containing 10 μM 4-CH2OH-SPiDER-RED, the reaction products were subjected to SDS-PAGE (running gel: 10%, stacking gel: 4%, electrophoresis voltage: 200 V). […] After observation, each gel was Coomassie stained and the position of the BSA on the gel was confirmed (FIG. 3(b)).
FIGS. 4(a) and 4(b) show the results of similar measurement using 10 μM 2-CH2F-SPiDER-RED-βGal instead of 10 μM 4-CH2F-SPiDER-RED-βGal.

[3] = tested on: cells expressing β-galactosidase (HEK-lacZ); assay: Fluorescence imaging of living cells expressing β-galactosidase (co-culture, confocal microscope); type: cell-based; details: 37° C. for 30 minutes, no washing; excitation 594 nm, fluorescence 610 to 700 nm
Method: (§1) 4-CHF2-SPiDER-RED-βGal was added to a dish in which cells expressing β-galactosidase (HEK-lacZ) and cells not expressing β-galactosidase (HEK) were co-cultured, and incubated at 37° C. for 30 minutes. The HEK cells were previously stained with CellTracker (TM) Green. A fluorescence image and a transmitted light image were acquired using a confocal microscope (TCS SP5X; manufactured by Leica). White light laser (WLL) was used as laser, and HCX PL APO CS 40×/1.25 (40 times, manufactured by Leica) was used as an objective lens. The observation conditions were as follows: an excitation wavelength: 594 nm, a fluorescence wavelength: 610 to 700 nm, and a scale: 25 μm.

[4] = tested on: cells not expressing β-galactosidase (HEK); assay: Fluorescence imaging of living cells, co-cultured cells not expressing β-galactosidase; type: cell-based; details: 37° C. for 30 minutes, no washing; excitation 594 nm, fluorescence 610 to 700 nm
Method: as §1

[5] = tested on: Wing discs of a drosophila (en-lacZ/dpp-GFP) expressing β-galactosidase and GFP; assay: Non-fixed fluorescence imaging of living biological tissue having β-galactosidase activity; type: cell-based, Drosophila melanogaster; details: room temperature for 2 hours, excitation 594 nm, fluorescence 601 to 681 nm
Method: Next, we have examined whether the probe compound of the present invention, 4-CHF2-SPiDER-RED-βGal, can be applied to fluorescence imaging of living biological tissues by using drosophila tissues.
Wing discs of a drosophila (Drosophila melanogaster, en-lacZ/dpp-GFP) expressing β-galactosidase and GFP in some tissues were incubated with 4-CHF2-SPiDER-RED-βGal and Hoechst 33342 at room temperature for 2 hours, and then observed under a confocal microscope (TCS SP8, manufactured by Leica). White light laser (WLL) was used as laser, and HCX PL APO CS 40×/1.25 (40 times, manufactured by Leica) was used as an objective lens. The measurement conditions are as follows: excitation wavelengths: 405 nm (Hoechst 33342), 488 nm (GFP), 594 nm (4-CHF2-SPiDER-RED-βGal), fluorescence wavelengths: 420 to 490 nm (Hoechst 33342), 490 to 570 nm (GFP), 601 to 681 nm (4-CHF2-SPiDER-RED-βGal), and a scale: 75 μm.

T1 sequence (P00722 2-1024): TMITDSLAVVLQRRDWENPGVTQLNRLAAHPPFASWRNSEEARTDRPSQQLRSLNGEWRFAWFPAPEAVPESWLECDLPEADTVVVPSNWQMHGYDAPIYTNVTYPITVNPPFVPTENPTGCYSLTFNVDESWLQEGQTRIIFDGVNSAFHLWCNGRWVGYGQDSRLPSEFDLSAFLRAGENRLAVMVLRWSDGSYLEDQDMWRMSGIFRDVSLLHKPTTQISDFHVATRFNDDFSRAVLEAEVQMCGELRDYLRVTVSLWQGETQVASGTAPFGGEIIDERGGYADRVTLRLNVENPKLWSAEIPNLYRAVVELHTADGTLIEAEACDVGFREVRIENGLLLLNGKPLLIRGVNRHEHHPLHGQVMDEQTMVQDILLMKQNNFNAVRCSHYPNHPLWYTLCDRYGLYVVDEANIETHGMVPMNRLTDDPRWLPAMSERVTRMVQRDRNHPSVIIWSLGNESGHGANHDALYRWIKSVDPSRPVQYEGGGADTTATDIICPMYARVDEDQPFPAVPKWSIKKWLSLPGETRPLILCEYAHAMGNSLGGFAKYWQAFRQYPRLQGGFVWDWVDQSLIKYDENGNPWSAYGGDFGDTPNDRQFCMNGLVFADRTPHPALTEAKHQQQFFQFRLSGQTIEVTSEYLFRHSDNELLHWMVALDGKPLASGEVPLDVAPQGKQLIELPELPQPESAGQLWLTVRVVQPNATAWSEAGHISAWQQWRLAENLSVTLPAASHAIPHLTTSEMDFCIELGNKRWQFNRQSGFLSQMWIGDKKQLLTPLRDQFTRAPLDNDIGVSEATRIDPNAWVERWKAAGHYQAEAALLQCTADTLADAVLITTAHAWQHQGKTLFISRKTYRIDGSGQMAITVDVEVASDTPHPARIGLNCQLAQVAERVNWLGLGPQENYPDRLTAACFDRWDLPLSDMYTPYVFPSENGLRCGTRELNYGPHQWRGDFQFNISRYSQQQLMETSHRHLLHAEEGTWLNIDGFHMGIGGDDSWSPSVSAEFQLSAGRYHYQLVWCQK

SMILES: CN(C)c1ccc2c(c1)[Si](C)(C)c1cc(O[C@@H]3O[C@H](CO)[C@H](O)[C@H](O)[C@H]3O)c(CF)cc1C21OC(=O)c2ccccc21 (some centres unmarked) [2-CH2F-SPiDER-RED-βGal]
- fluorescence emission in response to enzyme activity of β-galactosidase [1]: emit fluorescence specifically in response to enzyme activity of β-galactosidase
- fluorescent labeling of BSA (fluorescence at the position of BSA after SDS electrophoresis) [2]: fluorescently label bovine serum albumin (BSA) protein
- fluorescent labeling of BSA (fluorescence at the position of BSA after SDS electrophoresis) ([2]; listed as 2-CHF2-SPiDER-RED-βGal): BSA was fluorescently labeled
- fluorescence intensity of labeled BSA (comparison of the two probes) ([2]; 10 μM probe): lower than that of 4-CHF2-SPiDER-RED-βGal
- reactivity with the enzyme ([2]; 10 μM probe): low

SMILES: CN(C)c1ccc2c(c1)[Si](C)(C)c1c(ccc(O[C@@H]3O[C@H](CO)[C@H](O)[C@H](O)[C@H]3O)c1CF)C21OC(=O)c2ccccc21 (some centres unmarked) [4-CH2F-SPiDER-RED-βGal]
- fluorescence increasing rate (comparison of the two probes) [1]: higher fluorescence increasing rate than 2-CHF2-SPiDER-RED-βGal
- reactivity with β-galactosidase (comparison of the two probes) [1]: higher reactivity with β-galactosidase
- fluorescence emission in response to enzyme activity of β-galactosidase [1]: emit fluorescence specifically in response to enzyme activity of β-galactosidase
- fluorescent labeling of BSA (fluorescence at the position of BSA after SDS electrophoresis) [2]: fluorescently label bovine serum albumin (BSA) protein
- red fluorescence in HEK-lacZ cells [3]: red fluorescence derived from the test compound was observed only in HEK-lacZ cells
- red fluorescence signal in HEK cells not expressing β-galactosidase [4]: no red fluorescence signal was obtained
- selective fluorescence imaging of the region / cells having β-galactosidase activity in living tissue ([5]; with Hoechst 33342, listed as 4-CHF2-SPiDER-RED-βGal): selective fluorescence imaging of the region having β-galactosidase activity was possible; also recorded: can be detected at a single-cell level
- diffusion of fluorescence of the enzyme reaction product in tissue [5]: no diffusion of fluorescence

SMILES: CN(C)c1ccc2c(c1)[Si](C)(C)c1c(ccc(O)c1CO)C21OC(=O)c2ccccc21 (centres unmarked) [4-CH2OH-SPiDER-RED, reference compound]
- fluorescent labeling of BSA (fluorescence at the position of BSA after SDS electrophoresis) [2]: fluorescence was not observed
